The text below walks through data of US12528818B2, “Compositions and methods for inhibition of RAS” (Leidos Biomedical Research, Inc., priority 2021, dated 2026).

Molecules are shown by their SMILES.

The first experiment has as its system pERK in NCI-H358 cells. Put plainly: Cell-based pERK HTRF assay (pERK inhibition in H358 cells). The following applies: Homo sapiens, NCI-H358, 0.5 h, pERK inhibition IC50, NCI-H358 cells, 30 min incubation; read-out: PERK in H358 cell. A general note: Time-resolved FRET reads energy transfer from a long-lived donor to a nearby acceptor.
For `C=CC(=O)N1CC(N(C)c2nc(OC[C@@]34CCCN3C[C@H](F)C4)nc3c(F)c(-c4ccc(F)c5sc(N)nc45)c(C(F)(F)F)cc23)C1` [Compound 223], the IC50 is less than 0.1 µM.
Still for that read-out and setting: the result for `C=CC(=O)N1C[C@H](N(C)c2nc(OC[C@@]34CCCN3C[C@H](F)C4)nc3c(F)c(-c4ccc(F)c5sc(N)nc45)c(C(F)(F)F)cc23)C2(CC2)C1` [Compound 294] reads less than 0.1 µM; that for `C=CC(=O)N1CCC(Nc2nc(OC[C@@H]3CCCN3C)nc3c(F)c(-c4ccc(F)c5sc(N)nc45)c(Cl)cc23)C1` (stereo partly drawn) [Compound 52], more than 1 µM.
The same measure, in the same setting: the result for `C=C(F)C(=O)N1CCN(c2nc(OC[C@@]34CCCN3C[C@H](F)C4)nc3c(F)c(-c4ccc(F)c5sc(N)nc45)c(C(F)(F)F)cc23)CC1` [Compound 186] reads 0.1 to 1 µM; that for `C=CC(=O)N1CC[C@@H](N(CC)c2nc(OC[C@@]34CCCN3C[C@H](F)C4)nc3c(F)c(-c4ccc(F)c5sc(N)c(C#N)c45)c(C(F)(F)F)cc23)[C@H]1COC` [Compound 442], less than 0.1 µM; that for `C=CC(=O)N1CCC(N(CC)c2nc(OC[C@@H]3CC4(CC4)CN3C)nc3c(F)c(-c4ccc(F)c5sc(N)c(C#N)c45)c(C(F)(F)F)cc23)[C@H]1COC` (stereo partly drawn) [Compound 445], less than 0.1 µM.
The same measure, in the same setting: the result for `C=CC(=O)N1C[C@@H](F)[C@@H](N(CC)c2nc(OC[C@@]34CCCN3C[C@H](F)C4)nc3c(F)c(-c4ccc(F)c5sc(N)c(C#N)c45)c(Cl)cc23)C1` [Compound 368] reads less than 0.1 µM; that for `C=CC(=O)N1CCC(N(C)c2nc(OC[C@@H]3C[C@@H](F)CN3C)nc3c(F)c(-c4ccc(F)c5sc(N)c(C#N)c45)c(C(F)(F)F)cc23)[C@H]1COC` (stereo partly drawn) [Compound 443], less than 0.1 µM; that for `C=CC(=O)N1C[C@@H](F)[C@@H](N(C)c2nc(OC[C@@]34CCCN3C[C@H](F)C4)nc3c(C#N)c(-c4ccc(F)c5sc(N)c(C#N)c45)c(Cl)cc23)C1` [Compound 379], less than 0.1 µM.
As to `C=CC(=O)N1CC[C@@H](N(C)c2nc(OC[C@@]34CCCN3C[C@H](F)C4)nc3cc(-c4c(F)cc(F)c5sc(N)nc45)c(C(F)(F)F)cc23)C1` [Compound 305], the IC50 is less than 0.1 µM.
On the same count and under the same terms, the result for `C=CC(=O)N1CC[C@@H](N(C)c2nc(OC[C@@H]3CCCN3C)nc3c(F)c(-c4ccc(F)c5sc(N)nc45)c(C(F)(F)F)cc23)C1` [Compound 230] reads 0.1 to 1 µM; that for `C=CC(=O)N1CCN(c2nc(OC[C@@H]3CCCN3C)nc3c(F)c(-c4ccc(F)c5sc(N)nc45)c(OC(F)(F)F)cc23)CC1` [Compound 163], 0.1 to 1 µM.
The same measure, in the same setting: the result for `C=CC(=O)N1CC[C@@H]2[C@H]1CN2c1nc(OC[C@@H]2C[C@@H](F)CN2C)nc2c(F)c(-c3ccc(F)c4sc(N)nc34)c(Cl)cc12` [Compound 89] reads less than 0.1 µM; that for `C=CC(=O)N1CCC[C@@H](N(C)c2nc(OC[C@@]34CCCN3C[C@H](F)C4)nc3c(F)c(-c4ccc(F)c5sc(N)nc45)c(Cl)cc23)C1` (atropisomer, axis not shown) [Compound 241], less than 0.1 µM; that for `C=CC(=O)N1CCC(N(C)c2nc(OC[C@@H]3C[C@@H](F)CN3C)nc3c(F)c(-c4ccc(F)c5sc(N)c(C#N)c45)ccc23)[C@H]1C` (stereo partly drawn) [Compound 429], less than 0.1 µM.
The same measure, in the same setting: the result for `C=CC(=O)N1C[C@H](C)N(c2ncnc3c(F)c(-c4ccc(F)c5sc(N)c(C#N)c45)c(C(F)(F)F)cc23)C[C@H]1C` [Compound 382] reads less than 0.1 µM.
Consider `C=CC(=O)N1CC[C@@H](N(C)c2nc(OC[C@@]34CCCN3C[C@H](F)C4)nc3c(F)c(-c4ccc(F)c5sc(N)c(C#N)c45)c(C#N)cc23)C1` [Compound 325], for which the IC50 was less than 0.1 µM.
`C=CC(=O)N1[C@H](C)CN(c2nc(OC[C@]34CCCN3C[C@H](F)C4)nc3c(F)c(-c4ccc(F)c5sc(N)nc45)c(C(F)(F)F)cc23)C[C@@H]1C` [Compound 215]: the IC50 is less than 0.1 µM.
The same measure, in the same setting: the result for `C=CC(=O)N1C[C@@H](F)[C@@H](N(CC)c2nc(OC[C@@]34CCCN3C[C@H](F)C4)nc3c(C#N)c(-c4ccc(F)c5sc(N)c(C#N)c45)c(Cl)cc23)C1` [Compound 380] reads less than 0.1 µM; that for `C=CC(=O)N1CC[C@@H](N(C)c2nc(OCC3(CN4CC[C@@H](F)C4)CC3)nc3c(F)c(-c4ccc(F)c5sc(N)nc45)c(C(F)(F)F)cc23)C1` [Compound 288], less than 0.1 µM; that for `C=CC(=O)N1CC[C@@H](N(CC)c2nc(OC[C@@]34CCCN3C[C@H](F)C4)nc3cc(-c4ccc(F)c5sc(N)c(C#N)c45)c(C#N)cc23)[C@H]1COC` [Compound 439], 0.1 to 1 µM.
The same measure, in the same setting: the result for `C=CC(=O)N1C[C@H](C)N(c2nc(OC[C@]34CCCN3C[C@H](OC)C4)nc3c(F)c(-c4ccc(F)c5sc(N)nc45)c(C(F)(F)F)cc23)C[C@H]1C` [Compound 269] reads less than 0.1 µM; that for `C=CC(=O)N1C[C@H](C)N(c2nc(OC[C@@]34CCCN3C[C@H](OC)C4)nc3c(F)c(-c4ccc(F)c5sc(N)c(C#N)c45)c(C(F)(F)F)cc23)C[C@H]1C` [Compound 341], less than 0.1 µM.
Turning to `C=CC(=O)N1CCC(N(C)c2nc(OC[C@@H]3CCCN3C)nc3cc(-c4ccc(F)c5sc(N)c(C#N)c45)c(C#N)cc23)[C@H]1COC` (stereo partly drawn) [Compound 455], the IC50 is 0.1 to 1 µM.
As to `C=CC(=O)N(C)C1CN(c2nc(OCC34CCCN3CCC4)nc3c(F)c(-c4ccc(F)c5sc(N)nc45)c(Cl)cc23)C1` [Compound 167], the IC50 is more than 1 µM.
Same read-out and setting: the result for `C=CC(=O)N1CC[C@@H](N(C)c2nc(OCC34CCCN3CCC4)nc3c(F)c(-c4cc(O)cc5ccccc45)c(C(F)(F)F)cc23)C1` [Compound 226] reads 0.1 to 1 µM; that for `C=CC(=O)N1CC[C@@H](N(C)c2nc(OC[C@@]34CCCN3C[C@H](OC)C4)nc3c(F)c(-c4ccc(F)c5sc(N)nc45)c(C(F)(F)F)cc23)C1` [Compound 290], less than 0.1 µM; that for `C=CC(=O)N1C[C@@H](F)[C@@H](N(C)c2nc(OC[C@@H]3CC4(CC4)CN3C)nc3cc(-c4ccc(F)c5sc(N)c(C#N)c45)c(C(F)(F)F)cc23)C1` [Compound 357], less than 0.1 µM.
The same measure, in the same setting: the result for `C=CC(=O)N1C[C@H](C)N(c2nc(OC[C@@]34CCCN3C[C@H](F)C4)nc3c(F)c(-c4ccc(F)c5sc(N)nc45)c(OC(F)(F)F)cc23)C[C@H]1C` [Compound 235, 1-((2R,5S)-4-(7-(2-amino-7-fluorobenzo[d]thiazol-4-yl)-8-fluoro-2-(((2R,7aS)-2-fluorotetrahydro-1H-pyrrolizin-7a(5H)-yl)methoxy)-6-(trifluoromethoxy)quinazolin-4-yl)-2,5-dimethylpiperazin-1-yl)prop-2-en-1-one] reads less than 0.1 µM; that for `C=CC(=O)N1CCN(c2nc(OCC34CCCN3CC(F)(F)C4)nc3c(F)c(-c4ccc(F)c5sc(N)nc45)c(C(F)(F)F)cc23)CC1` (stereo not drawn) [Compound 192], less than 0.1 µM.
Turning to `C=C(F)C(=O)N1C[C@H](C)N(c2nc(OC[C@]34CCCN3C[C@H](F)C4)nc3c(F)c(-c4ccc(F)c5sc(N)nc45)c(C(F)(F)F)cc23)C[C@H]1C` [Compound 205], the IC50 lay in the range of 0.1 to 1 µM.
The same measure, in the same setting: the result for `C=CC(=O)N1CC(N(C)c2nc(OC[C@]34CCCN3C[C@H](F)C4)nc3c(F)c(-c4ccc(F)c5sc(N)nc45)c(Cl)cc23)C1` [Compound 169] reads 0.1 to 1 µM; that for `C=CC(=O)N1CC[C@@H]2[C@H]1CN2c1nc(OCC23CCCN2CCC3)nc2c(F)c(-c3ccc(F)c4sc(N)nc34)c(C(F)(F)F)cc12` [Compound 166], 0.1 to 1 µM.
As for `C=CC(=O)N1C[C@H](C)N(c2nc(OC[C@@]34CCCN3C[C@H](F)C4)nc3c(F)c(-c4ccc(F)c5sc(N)c(C#N)c45)c(C(F)(F)F)cc23)C[C@H]1C` [Compound 252, 4-(4-((2S,5R)-4-acryloyl-2,5-dimethylpiperazin-1-yl)-8-fluoro-2-(((2R,7aS)-2-fluorotetrahydro-1H-pyrrolizin-7a(5H)-yl)methoxy)-6-(trifluoromethyl)quinazolin-7-yl)-2-amino-7-fluorobenzo[b]thiophene-3-carbonitrile], the IC50 is less than 0.1 µM.
Still for that read-out and setting: the result for `C=CC(=O)N1CCC(N(C)c2nc(OC[C@@H]3CC4(CC4)CN3C)nc3c(F)c(-c4ccc(F)c5sc(N)c(C#N)c45)ccc23)[C@H]1COC` (stereo partly drawn) [Compound 433] reads less than 0.1 µM; that for `C=CC(=O)N1CCN(c2nc(OCC34CCCN3CCC4)nc3c(F)c(-c4ccc(F)c5oc(N)nc45)c(C(F)(F)F)cc23)CC1` [Compound 162, 1-(4-(7-(2-amino-7-fluorobenzo[d]oxazol-4-yl)-8-fluoro-2-((tetrahydro-1H-pyrrolizin-7a(5H)-yl)methoxy)-6-(trifluoromethyl)quinazolin-4-yl)piperazin-1-yl)prop-2-en-1-one], 0.1 to 1 µM; that for `C=CC(=O)N1CC[C@@H](N(C)c2nc(OC[C@@]34CCCN3C[C@H](F)C4)nc3cc(-c4ccc(F)c5sc(N)c(C#N)c45)c(C#N)cc23)[C@H]1COC` [Compound 393], less than 0.1 µM.
On the same count and under the same terms, the result for `C=CC(=O)N1C[C@H](C)N(c2nc(OC[C@]34CCCN3C[C@@H](F)C4)nc3c(F)c(-c4ccc(F)c5sc(N)c(C#N)c45)c(C(F)(F)F)cc23)C[C@H]1C` [Compound 334] reads less than 0.1 µM.

Staying with this experiment, now noted: pERK inhibition IC50, NCI-H358 cells, 30 min incubation; read-out: PERK in H358 cell.
Take `C=CC(=O)N1CC[C@@H](N(c2nc(OC[C@@]34CCCN3C[C@H](F)C4)nc3c(F)c(-c4ccc(F)c5sc(N)nc45)c(C(F)(F)F)cc23)C2CC2)C1` (single isomer, unassigned) [Compound 237]: the IC50 was more than 1 µM.
Consider `C=CC(=O)N1CC[C@@H](N(C)c2nc(OC[C@]34CCCN3C[C@H](OC)C4)nc3c(F)c(-c4ccc(F)c5sc(N)nc45)c(C(F)(F)F)cc23)C1` (atropisomer, axis not shown) [Compound 278], for which the IC50 lay within 0.1 to 1 µM.
On the same count and under the same terms, the result for `C=CC(=O)N1C[C@H](C)N(c2nc(OC[C@@]34CCCN3C[C@H](F)C4)nc3c(F)c(-c4ccc(F)c5sc(N)nc45)c(C(F)(F)F)cc23)C[C@H]1C` (atropisomer, axis not shown) [Compound 268] reads less than 0.1 µM.
Same read-out and setting: the result for `C=CC(=O)N1CC[C@@H](Nc2nc(OC[C@@]34CCCN3C[C@H](F)C4)nc3c(F)c(-c4ccc(F)c5sc(N)nc45)c(C(F)(F)F)cc23)C1` (single isomer, unassigned) [Compound 272] reads more than 1 µM.
